The values below come from patent publication US7211434B2, “Primitive neural stem cells and method for differentiation of stem cells to neural cells” (priority 2000, dated 2007).

Holding throughout (format): cell-based, mouse
For test [1], the system named is ES-derived neural sphere colony cells. Put plainly: Subcloning of single ES-derived sphere colonies (secondary colony formation, self-renewal). The following applies: subcloned single primary colonies; factor alone. Here is the method: Self-renewal of primary colony-formin) ES cells was assessed as previously described (Tropepe et al., 1999). Single sphere colonies were isolated, mechanically dissociated into a single cell suspension in 0.2 ml of serum-free media containing various combinations of LIF (1000 U/ml), […] (10 ng/ml), heparin (2 (g/ml), EGF (20 ng/ml; Upstate Biotech) or B27 supplement (1X) and cultured in 96-well (Nunclon) plates. Secondary sphere colonies were quantified after 7–10 days. A similar procedure was used for repeated passaging experiments. Cell viability after a 7-day culture period (sphere colony assay) or after 4–24 hours (short-term ES differentiation assay) was determined using trypan blue exclusion (1:2 dilution of 0.4% trypan blue; Gibco).

Test [2] has as its system neural stem cells from the E9.5 forebrain. Nature of the test: Sphere colony formation from E9.5 forebrain neural stem cells. The method, then: Pregnant CD1 mice (Charles River, Quebec) of gestational age (9.5 (E9.5) or E11.5 (see below) were killed via cervical dislocation and embryos were removed as previously described (Chiasson et al., 1999; Tropepe et al., 1999). Dissected germinal zone from the E9.5 telencephalon was transferred to serum-free media and mechanically dissociated into a cell suspension with a fire-polished Pasteur pipette. Cell viability was assessed using trypan blue. Cells were plated at 10 cells/μl in 24-well (0.5 ml/well) uncoated plates (Nunclon) in serum-free media containing either FGF2 (10 ng/ml)+heparin (2 (g/ml) or FGF2+heparin+LIF (1000 U/ml). Self-renewal of neural stem cells that generated primary sphere colonies (selecting mainly floating colonies after 7 days in vitro) were routinely subcloned by mechanically dissociating a single colony in 0.2 ml of serum-free media, in identical growth factor conditions as the primary culture, and plated in uncoated 96-well (0.2 ml/well) plates (Nunclon). The number of new secondary colonies was quantified after a further 6–7 days in vitro. Neural stem cell colonies from the adult forebrain subependyma were isolated as previously described (Chiasson et al., 1999) and cultured as above.

For test [3], the system named is ES cells. Nature of the test: Primary neural sphere colony formation from ES cells in serum-free low-density culture, 7 days. Particulars: for primary colony formation, factor alone: ES cells at relatively low cell densities, serum-free, 7 days in vitro. Here is the method: For passaging ES cells, cultures were disaggregated with 0.05% trypsin dissolved in Tris-saline/EDTA for 5–10 minutes, mechanically dissociated, centrifuged and resuspended in culture medium.
Passaged ES cells were washed (2 times), centrifuged and resuspended in chemically defined serum-free media (Reynolds et al., 1992; Reynolds & Weiss, 1996) composed of a 1:1 mixture of Dulbecco's modified Eagle's medium (DMEM GIBCO) and F-12 nutrient (GIBCO) including 0.6% glucose (Sigma), 2 mM glutamine (GIBCO), 3 mM sodium bicarbonate (Sigma), and 5 mM HEPFS buffer (Sigma). A defined hormone and salt mixture (Sigma) that included insulin (25 (g/ml), transferrin (100 (g/ml), progestrone (20 nM), putrescine (60 (M), and selenium chloride (30 nM) was used instead of serum. ES cells were plated at various cell densities in 24-well culture plates (Nunclon) in the presence of either LIF (1000 U/ml), LIF+FGF2 (10 ng/ml; Upstate Biotech or Sigma) and 2 (g/ml heparin (Sigma), or in the absence of any exogenous growth factors. For short term (4–24 hours) neural differentiation, ES cells were plated in identical culture conditions in 24-well culture plates (Nunclon) that were precoated with poly-L-ornithine (15 μg/ml, Gibco).
Limiting dilution analysis was performed as previously described (Bellows and Aubin, 1989; Tropepe et al., 1999). ES cells were plated in 24-well plates containing LIF (1000 U/ml). Cell numbers were adjusted to give a starting concentration of 5000 cells/ml from which serial dilutions were made. Final cell dilutions ranged from 1000 cells per well to 1 cell per well in 0.5 ml aliquots. Cultures were left undisturbed for 7 days after which time the fraction of wells not containing sphere colonies for each cell plating density was calculated and those points were plotted against the number of cells plated per well. The number of cells required to form one sphere colony, which reflected the proportion of neural stem cells in the entire population, was then determined from the point at which the regression line crossed the 0.37 level (37%). […]

With “LIF: leukemia inhibitory factor, cytokine added at 1000 U/ml”, the “secondary neural stem cell colony formation” value in test [1] is recorded as “not sufficient for secondary colony formation”. For the same substance, the “E9.5 neural stem cell proliferation, LIF alone” value in test [2] (LIF alone) is on record as “not sufficient for E9.5 neural stem cell proliferation”. In test [2] (LIF in the presence of FGF2, compared to FGF2 alone), the “numbers of neural stem cells forming sphere colonies, with FGF2” value is listed as “can enhance the numbers of FGF-responsive neural stem cells”. Also, the “primary colony formation, factor alone” value in test [3] is on record as “floating sphere-like colonies were generated”. Moreover, in test [3] (limiting dilution assay in the presence of LIF (1000 U/ml)), the “estimated frequency of sphere colony forming cells” value was around 0.2%.
Turning to “EGF: growth factor, 20 ng/ml; Upstate Biotech (NSDSECPLSHDGYCLHDGVCMYIEALDKYACNCVVGYIGERCQYRDLKWWELR; Epidermal growth factor; UniProt P01133 971-1023, looked up)”, the “secondary neural stem cell colony formation” value in test [1] is reported as “not observed”. Besides, the “primary colony formation, factor alone” value in test [3] is recorded as “no cell colonies were generated”.
